For this experiment, the system named is NCI-H295R. The experiment is described as follows: IC50 (antiproliferative, ATP content). The conditions noted are these: 48 h. An outline of the steps: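 Compounds were pin-transferred at 8 final concentrations between 0.6 nM and 46 µM onto adrenocortical carcinoma cells (1500 per well, 1536-well plates) that had been cultured overnight in serum-free DMEM with ITS. Plates then stood 48 h at 37 °C, 5% CO2, and ATP was detected by CellTiter-Glo luminescence. IC50 was derived from logistic fits of normalised signal, and compounds giving no concentration response were noted as above the top dose.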
Consider `Cc1ncc[nH]1`, for which the IC50 is > 46 µM.

Take `O=C1c2ccccc2C(=O)c2ccccc21`: the IC50 is > 46 µM.

Consider `CCN(CCO)CCCC(C)Nc1ccnc2cc(Cl)ccc12.O=S(=O)(O)O` (stereo unspecified), for which the IC50 was > 46 µM.

Regarding `NC[C@H](O)c1ccc(O)c(O)c1.O=C(O)C(O)C(O)C(=O)O.O=C(O)C(O)C(O)C(=O)O`, the IC50 was > 46 µM.

For `CNC(=O)OCC[N+](C)(C)C.[Cl-]`, the IC50 was > 46 µM.

Consider `Nc1ccc(C(=O)[O-])c(O)c1.[Na+]`, for which the IC50 was > 46 µM.

`CC1(C)S[C@@H]2[C@H](NC(=O)C(C(=O)[O-])c3ccccc3)C(=O)N2[C@H]1C(=O)[O-].[Na+].[Na+]` (stereo partly specified): the half-maximal inhibitory concentration (IC50) is > 46 µM.

`CC[C@H]1OC(=O)[C@H](C)[C@@H](O[C@H]2C[C@@](C)(OC)[C@@H](O)[C@H](C)O2)[C@H](C)[C@@H](O[C@@H]2O[C@H](C)C[C@H](N(C)C)[C@H]2O)[C@](C)(O)C[C@@H](C)C(=O)[C@H](C)[C@@H](O)[C@]1(C)O`: the IC50 was > 46 µM.

Consider `COC(=O)C1=CCCN(C)C1`, for which the IC50 was > 46 µM.

On to `O=C(C2)N([C@]([H])1[C@@]([O-])=O)[C@]2([H])O\C1=C/CO.[Li+]`, for which the IC50 is > 46 µM.

For the compound `O=C1C[C@@H]2OCC=C3CN4CC[C@]56c7ccccc7N1[C@H]5[C@H]2[C@H]3C[C@H]46`, the 50% inhibitory concentration (IC50) is > 46 µM.

Take `O=[C@](O)[C@H]2N(C([C@H](C)N[C@H]([C@@](OCC)=O)CCC3=CC=CC=C3)=O)[C@@]1([H])CCCC[C@@]([H])1C2`: the IC50 is > 46 µM.

As to `O=C1OC(c2ccc(O)cc2)(c2ccc(O)cc2)c2ccccc21`, the IC50 was > 46 µM.

For the compound `Cc1ccnc2c1NC(=O)c1cccnc1N2C1CC1`, the IC50 was > 46 µM.

On to `COCCCOc1ccnc(CS(=O)c2nc3ccccc3[n-]2)c1C.[Na+]` (stereo unspecified), for which the IC50 was > 46 µM.

As to `CC(C)(C(=O)c1cccnc1)c1cccnc1`, the IC50 is > 46 µM.

As for `Cl.Nc1ccc(/N=N/c2ccccc2)c(N)n1`, the IC50 was > 46 µM.

Consider `Cc1ncc([N+](=O)[O-])n1CCO`, for which the IC50 is > 46 µM.

With `CC1(C)CCC(C)(C)c2cc(NC(=O)c3ccc(C(=O)O)cc3)ccc21`, the IC50 was > 46 µM.

With `C[N+](C)(C)CCCCCC[N+](C)(C)C`, the IC50 is > 46 µM.

For `COc1ccc(/C=C/C(=O)O)cc1`, the IC50 was > 46 µM.

`CC(CCc1ccc(O)cc1)NCC(O)c1ccc(O)cc1.Cl` (stereo unspecified): the IC50 is > 46 µM.

In the case of `CCCCC(CC)COC(=O)C(C#N)=C(c1ccccc1)c1ccccc1` (stereo unspecified), the half-inhibitory concentration (IC50) is > 46 µM.

Consider `Cc1cccc(C)c1NC(=O)C1CCCCN1C.Cl` (stereo unspecified), for which the IC50 was > 46 µM.

For `CN1C(CCl)Nc2cc(Cl)c(S(N)(=O)=O)cc2S1(=O)=O` (stereo unspecified), the IC50 was > 46 µM.

As for `CCOC(=O)c1cccc(N)c1.CS(=O)(=O)O`, the IC50 was > 46 µM.

Regarding `CCCn1c(=O)[nH]c(=O)c2[nH]cnc21`, the IC50 was > 46 µM.

For the compound `CC(=O)Oc1ccc2c3c1O[C@H]1[C@@H](OC(C)=O)C=C[C@H]4[C@@H](C2)N(C)CC[C@@]341`, the IC50 is > 46 µM.

Regarding `CNc1cc(OC)c(C(=O)N[C@H]2CCN(Cc3ccccc3)[C@H]2C)cc1Cl`, the IC50 is > 46 µM.

Consider `CC(C)NCC(O)COc1ccc(CCOCC2CC2)cc1` (stereo unspecified), for which the IC50 was > 46 µM.

Turning to `C[C@H](Cn1cnc2c(N)ncnc21)OCP(=O)(O)O`, the IC50 was > 46 µM.

`FC1=CC2=C(O[C@H]([C@@](N)=O)C[C@@]([C@@]3=O)2NC(N3)=O)C=C1`: the IC50 is > 46 µM.

Take `CCN(CC)CCOC(=O)C(O)(c1ccccc1)c1ccccc1`: the IC50 was > 46 µM.

On to `C[N+](C)(C)CCOC(=O)CCC(=O)OCC[N+](C)(C)C.[Cl-].[Cl-]`, for which the IC50 is > 46 µM.

With `COc1ccc(-c2cc(C(F)F)nn2-c2ccc(S(N)(=O)=O)cc2)cc1F`, the IC50 was > 46 µM.

For the compound `C[NH+](C)CCC(c1ccccc1)c1cccc[nH+]1.O=C([O-])/C=C\C(=O)[O-]` (stereo unspecified), the IC50 is > 46 µM.

With `Cc1ccc(C)c(OCCCC(C)(C)C(=O)O)c1`, the IC50 was > 46 µM.

Consider `CC(C)CN(C[C@@H](OP(=O)([O-])[O-])[C@H](Cc1ccccc1)NC(=O)O[C@H]1CCOC1)S(=O)(=O)c1ccc(N)cc1.[Ca+2]`, for which the concentration for half-maximal inhibition (IC50) was > 46 µM.

In the case of `CC(=O)O.CNC(=N)NCCC[C@H](N)C(=O)O`, the IC50 was > 46 µM.

Regarding `C=CCC1(C(C)CCC)C(=O)N=C([S-])NC1=O.[Na+]` (stereo unspecified), the IC50 was > 46 µM.

In the case of `CN1CCN(c2c(F)cc3c(=O)c(C(=O)O)cn4c3c2OCN4C)CC1`, the IC50 was > 46 µM.

Turning to `O=C(O[C@@H]2C[C@H](CC3)[N@@+](C)(C)[C@H]3C2)C(CO)C1=CC=CC=C1.[Br-]` (stereo partly specified), the IC50 was > 46 µM.

`CCN(CC)CCOC(=O)c1ccc(N)cc1.Cl`: the IC50 was > 46 µM.

Regarding `COCCOC(=O)C1=C(C)NC(C)=C(C(=O)OC(C)C)C1c1cccc([N+](=O)[O-])c1` (stereo unspecified), the IC50 is > 46 µM.

For `COc1ccc2cc(CCC(C)=O)ccc2c1`, the IC50 is > 46 µM.

`O=C(O)Cc1sc(-c2ccccc2)nc1-c1ccc(Cl)cc1`: the IC50 is > 46 µM.

With `CN1CCN(CCCN2c3ccccc3Sc3ccc(C(F)(F)F)cc32)CC1.Cl.Cl`, the IC50 is > 46 µM.

For `CN1C(=O)C(C)(C2=CCCCC2)C(=O)N=C1O` (stereo unspecified), the IC50 is > 46 µM.

For `CN(C)C(Cc1ccccc1)c1ccccc1` (stereo unspecified), the IC50 is > 46 µM.

Turning to `CN[C@@H]1[C@@H](O[C@H]2O[C@H](CO)[C@@H](N)[C@H](O)[C@H]2O)O[C@H]2C[C@@H](N)[C@@H](O[C@H]3[C@H](O)[C@@H](O)[C@H](N)C[C@@H]3N)O[C@@H]2[C@@H]1O`, the IC50 is > 46 µM.

For the compound `CS(=O)(=O)c1ccc([C@@H](O)[C@@H](CF)NC(=O)C(Cl)Cl)cc1`, the IC50 is > 46 µM.

Take `CCCc1ncc(C[n+]2ccccc2C)c(N)n1.Cl.[Cl-]`: the IC50 is > 46 µM.

Turning to `CC(=O)OCC(=O)[C@@]12OC3(CCCC3)O[C@@H]1C[C@H]1C3CCC4=CC(=O)C=C[C@]4(C)[C@@]3(F)[C@@H](O)C[C@@]12C` (stereo partly specified), the IC50 is > 46 µM.

For the compound `O=C1c2ccccc2S(=O)(=O)N1CCCCN1CCN(c2ncccn2)CC1`, the IC50 was > 46 µM.

For `Cc1ccccc1OCC(O)CO` (stereo unspecified), the half-inhibitory concentration (IC50) was > 46 µM.

Take `O=C1[C@](NC(C3S\C(S3)=C(C(O)=O)/C(N)=O)=O)(OC)[C@]2([H])N1C(C(O)=O)=C(CSC4=NN=NN4C)CS2` (stereo partly specified): the IC50 was > 46 µM.

For the compound `[Na+].C/C(C)=C\Cc1cc(ccc1O)C(=O)N\C3=C(/[O-])c4ccc(O[C@@H]2OC(C)(C)[C@H](OC)[C@@H](OC(N)=O)[C@H]2O)c(C)c4OC3=O`, the IC50 was > 46 µM.

Regarding `CCCCC/C=C\C/C=C\C/C=C\CCCCC(=O)O`, the concentration for half-maximal inhibition (IC50) was > 46 µM.

Take `O=P([O-])([O-])OC[C@@]1(O)O[C@H](COP(=O)([O-])O)[C@@H](O)[C@@H]1O.[Na+].[Na+].[Na+]`: the IC50 was > 46 µM.

As to `CC1(C)O[C@@H]2C[C@H]3[C@@H]4C[C@H](F)C5=CC(=O)CC[C@]5(C)[C@H]4[C@@H](O)C[C@]3(C)[C@]2(C(=O)CO)O1`, the IC50 is > 46 µM.

For `O=C(O)CNC(=O)c1ccccc1I`, the IC50 was > 46 µM.

Consider `CC(=C\c1ccccc1)/C=C1/SC(=S)N(CC(=O)O)C1=O`, for which the IC50 was > 46 µM.

`C[Se]CCC(N)C(=O)O` (stereo unspecified): the IC50 is > 46 µM.

Regarding `COc1ccc(C(=O)CC(=O)c2ccc(C(C)(C)C)cc2)cc1`, the IC50 was > 46 µM.

`O[C@H]1[C@H]2[C@H](O)CCCN2C[C@H]1O`: the IC50 is > 46 µM.

In the case of `COc1ccc(CN(CCN(C)C)c2ccccn2)cc1`, the IC50 was > 46 µM.

`CN1CCN(c2cc3c(cc2F)c(=O)c(C(=O)O)cn3-c2ccc(F)cc2)CC1.Cl`: the IC50 is > 46 µM.

As to `NS(=O)(=O)c1cc(C2(O)NC(=O)c3ccccc32)ccc1Cl` (stereo unspecified), the IC50 was > 46 µM.

As to `CC(C)C[C@@H](N)C(=O)O`, the IC50 is > 46 µM.

In the case of `C=CCOc1ccccc1OCC(O)CNC(C)C.Cl` (stereo unspecified), the IC50 is > 46 µM.

For the compound `CC(CN(C)C)C(C)(O)Cc1ccc(Cl)cc1.Cl` (stereo unspecified), the IC50 is > 46 µM.

`Cl[C@H](CC4)[C@H](OC)C[C@@H]4/C=[C@](C)/[C@@H](OC([C@]2([H])CCCCN12)=O)[C@H](C)[C@@H](O)CC([C@H](CC)/C=C(C)/C[C@H](C)C[C@H](OC)[C@@]([C@@H](OC)C[C@H]3C)([H])O[C@@]3(O)C(C1=O)=O)=O`: the IC50 is > 46 µM.

`O=C(O)C1=CC2=C(C=CC=C2)C(CC3=C(O)C(C(O)=O)=CC4=C3C=CC=C4)=C1O.O=C([C@H](NC([C@@H](NC([C@@H](NC([C@@H](NC([C@@H](N[C@]([C@@H](N%11)CCC%11=O)=O)CC%10=CNC=N%10)=O)CC8=CNC9=CC=CC=C89)=O)CO)=O)CC7=CC=C(C=C7)O)=O)CC5=CNC6=CC=CC=C56)N[C@H](C(N[C@H](C(N%12CCC[C@@H]%12[C@@](NCC(N)=O)=O)=O)CCCNC(N)=N)=O)CC(C)C`: the IC50 was > 46 µM.

Regarding `CC(N)CCCC(C)(C)O.Cl` (stereo unspecified), the IC50 was > 46 µM.

Take `CN(C)[C@@H]1C(O)=C(C(N)=O)C(=O)[C@@]2(O)C(O)=C3C(=O)c4c(O)cccc4[C@@](C)(O)[C@H]3C[C@@H]12.Cl`: the IC50 was > 46 µM.

`O=C(Oc1cccc2cccnc12)c1ccccc1`: the IC50 was > 46 µM.

Consider `CC(=O)OCC(=O)[C@@]1(O)[C@H](C)C[C@H]2[C@@H]3CCC4=CC(=O)C=C[C@]4(C)[C@@]3(F)[C@@H](O)C[C@@]21C`, for which the IC50 is > 46 µM.

For the compound `CC[N+](CC)(CC)CCC(O)(c1ccccc1)C1CCCCC1.[Cl-]` (stereo unspecified), the IC50 is > 46 µM.

For `Cc1ccc(S(=O)(=O)NC(=O)NN2CCCCCC2)cc1`, the IC50 is > 46 µM.

For `NC(=O)CN1CCCC1=O`, the concentration for half-maximal inhibition (IC50) was > 46 µM.

With `CC/C(=C(/CC)c1ccc(OP(=O)(O)O)cc1)c1ccc(OP(=O)(O)O)cc1`, the IC50 is > 46 µM.

The values above are taken from the supplement of paper PMC3493320.
